Experimental data: patent US12600740B2, “Fluorinated N-acetyl glucosamine analogs and xylose derivatives” (UTI Limited Partnership, priority 2018, dated 2026)
Entries after “also recorded” stand apart in the source; their conditions may differ.

Assays:
splenocytes [1] = assay: Propidium iodide DNA cell cycle flow cytometry of splenocytes; assay type: cell-based, mouse; conditions: activated splenocytes
Text: Cell-cycle flow cytometry with propidium iodide was used to corroborate the above results, and ensure the reduction in proliferation was not due to cell death. […] To further investigate whether the reduction of proliferation was due to cell death, Annexin V and propidium iodide staining were used to differentiate necrotic cells (propidium iodide+), apoptotic cells (annexin V+), dead cells (propidium iodide+ and annexin V+), and live cells (propidium iodide-annexin V−).
Cell cycle staining with propidium iodide (PI) and analysis by flow cytometry gives percentage of cells in apoptosis, G1, G2, and synthesis, and apoptosis. Following a membrane permeabilization, PI chelates to DNA and level of staining specifies the stage of the cell cycle (e.g., G2 phase will have twice the DNA and thus twice the PI signal as G1 phase, apoptotic cells contain less DNA than healthy cells and are identified by low PI staining). 1×10^6 splenocytes were used per sample, with four replicates per condition. Cells were collected into a tube with PBS and centrifuged (200 r.p.m. for 5 minutes). […] Suspension was transferred to a FACs tube and analyzed. Annexin V/Propidium iodide staining was detected using the Annexin V FITC apoptosis detection kit (BD Biosciences, #556547), which was performed according to manufacturer's instructions.

[2] = test system: mice demyelinated with lysolecithin; assay: Lysolecithin demyelination of the mouse spinal cord; assay type: in vivo; conditions: 100 mg/kg IP twice a day, Day 3 to Day 6; Day 7 post-demyelination; listed as difluorosamine
Protocol: On Day 0, 7 mice were injected with 0.5 μL of 1.0% lysolecithin in the ventral funiculus of the spinal cord. Thereafter, 4 mice were treated from Day 3 to Day 6 with saline vehicle IP twice a day. 3 mice were treated from Day 3 to Day 6 with difluorosamine 100 mg/kg IP twice a day. On Day 7, mice were transcardially perfused with cold PBS and 4% PFA. Thoracic spinal cords were dissected, fixed and analyzed. Sections adjacent to lesion epicenters were triple-stained for Olig2 (cells of the oligodendrocyte lineage), PDGFRα (oligodendrocyte precursor cell) and MBP (myelin). The number of Olig2+, Olig2+ PDGFRα+ (oligodendrocyte precursor cell), and Olig2+ PDGFRα− (presumed mature oligodendrocytes) cells per field of view were quantified blindly. Statistics were conducted using 1-tailed t-tests.

splenocytes [3] = assay: Splenocyte thymidine proliferation assay (anti-CD3/anti-CD28); assay type: cell-based, mouse; conditions: 25 μM, 48 hours
Protocol: It was assessed whether the glucosamine analogs have immunomodulatory properties on splenocytes isolated in culture. T cells within the splenocyte pool were polyclonally activated with anti-CD3 and anti-CD28 antibodies in the presence of compounds for 48 hours, and proliferation was determined by the uptake of tritiated thymidine and expressed as counts per minute. The relative change in proliferation of treated versus control splenocytes was taken in order to rank the compounds across multiple independent experiments (FIG. 8a).
The spleens were isolated from 8-10-week-old female C57BL/6 mice and homogenized. The cells were isolated by Ficoll gradient and spun for 30 min at 1,800 r.p.m. The cell suspension was removed and the cells were washed once with PBS. The cell pellet was subsequently re-suspended in Roswell Park Memorial Institute media containing 10% fetal bovine serum, 1% penicillin/streptomycin, 1% sodium pyruvate and 1% L-glutamine. Trypan blue exclusion was used to count live cells, and the cells were plated at 2.5×10^5 cells per well in a round-bottom 96-well plate and activated with 1,000 ng/ml plate-bound anti-CD3 and 1,000 ng/ml anti-CD28 suspended in media to preferentially activate T lymphocytes. Compounds were added at final concentrations of 25 μM. The cells were kept at 37° C. and 5% CO2 for 30 h, after which 10 μl/well (1 μCi per well) of 3H-thymidine was added for 18 h. The cells containing thymidine were harvested onto filter mats using a cell harvester and mats were allowed to dry for 24 h. The results were read by liquid scintillation counts.

[4] = test system: CSPG production by astrocytes; assay: Western blot of astrocyte conditioned medium, MAB2030 (chondroitin sulfate GAG stubs); assay type: cell-based, mouse; conditions: astrocyte conditioned media, 50 μM, 48 hours
Text: Astrocytes are major producers of CSPGs following injury in the CNS [Jones, L. L., Margolis, R. U. & Tuszynski, M. H. The chondroitin sulfate proteoglycans neurocan, brevican, phosphacan, and versican are differentially regulated following spinal cord injury. Experimental Neurology 182, 399-411 (2003); Tang, X., Davies, J. E. & Davies, S. J. Changes in distribution, cell associations, and protein expression levels of NG2, neurocan, phosphacan, brevican, versican V2, and tenascin-C during acute to chronic maturation of spinal cord scar tissue. […] The Journal of neuroscience: the official journal of the Society for Neuroscience 20, 2427-2438 (2000); McKeon, R. J., Jurynec, M. J. & Buck, C. R. The chondroitin sulfate proteoglycans neurocan and phosphacan are expressed by reactive astrocytes in the chronic CNS glial scar. The Journal of neuroscience: the official journal of the Society for Neuroscience 19, 10778-10788 (1999); Haas, C. A., Rauch, U., Thon, N., Merten, T. & Deller, T. Entorhinal cortex lesion in adult rats induces the expression of the neuronal chondroitin sulfate proteoglycan neurocan in reactive astrocytes. The Journal of neuroscience: the official journal of the Society for Neuroscience 19, 9953-9963 (1999)] and they may help drive progression of disability in a model of progressive MS [Mayo, L. et al. Regulation of astrocyte activation by glycolipids drives chronic CNS inflammation. Nature medicine 20, 1147-1156 (2014)]. Therefore astrocytes were used as model cells to determine the ability of the sugar analogs to reduce synthesis of CSPGs. Since CSPGs are exported out of cells, the conditioned media from analog-treated astrocytes were probed by Western blots (FIG. 4). We used antibodies to both the stubs of chondroitin sulfate GAGs attached to the core protein (MAB2030) and to intact 4-sulfated chondroitin sulfate sidechains (2H6) (FIG. 4a). Particularly, we used the 2H6 antibody to label intact 4-sulfated chondroitin sulfate sidechains, and the MAB2030 antibody to detect the stubs of chondroitin sulfate GAGs attached to the core protein. […] 1998, 160 (8), 3812-3819. Poole Poole C. A.; Glant T. T.; Schofield J. R.; Chondrons from articular cartilage. (IV). Immunolocalization of proteoglycan epitopes in isolated canine tibial chondrons. J. Histochem. Cytochem. 1991, 39 (9), 1175-1187].
Astrocytes were plated in uncoated 6-well plates (3 replicate wells per treatment) at 1×10^6 cells/well in mixed glial media, and incubated at 5% CO2 and 37° C. Astrocytes were treated with compounds at 50 μM in AIM-V media for 48 hours. Media was pooled from 3 replicate wells in 15 ml 100K cutoff centricon tubes (EMD Millipore, #UFC905008), which were spun on an ultracentrifuge at 5000× g for 2 cycles of 10 minutes each. When harvested, the cell lysate was kept on ice for 5 minutes with 250 μL of RIPA buffer (ThermoFisher Scientific #89900) containing proteinase inhibitor, and then collected and centrifuged at 14000 g for 5 minutes. Total protein was quantified using a Bradford assay. Conditioned media that were to be probed for chondroitin 4-sulfate GAGs (Millipore, #MAB2030) were first digested with 0.2 U/ml chondroitinase ABC for overnight at 37° C. to remove chondroitin sulfate sidechains. Blots that were to be probed with CSA (2H6, Cosmo) or CS56 (Abcam #ab11570) were not exposed to chondroitinase ABC. Samples were heat denatured with NuPAGE® LDS Sample buffer at 70° C. for 10 minutes and then loaded into 3-8% tris-acetate pre-cast gels (ThermoFisher, #EA0478BOX). The gels were electrophoresed at a constant 150 V for 90 minutes and transferred to a […] polyvinylidene fluoride membrane at a constant 250 mA for 60 minutes. The membranes were blocked for one hour with 10% skim milk in Tris-buffered saline (TBS; 0.9% NaCl, 10 mM Tris-HCl, pH 7.5) containing 0.5% Tween 20 (TBS-T). Primary antibodies were added in 3% skim milk and incubated overnight at 4° C. […]

TNFα = TNFα ELISA of LPS-stimulated bone marrow-derived macrophages; assay type: cell-based, mouse; conditions: BMDMs, 50 μM, LPS 100 ng/ml, 24 hours
Protocol: Multiple Sclerosis: Mechanisms and Immunotherapy. Neuron 97, 742-768 (2018)]. It was tested whether the sugar analogs could affect the activity of macrophages, using bone marrow-derived macrophages (BMDMs) stimulated with lipopolysaccharide (LPS, 100 ng/ml). The sugar analogs were added at 50 μM prior to LPS, and the conditioned medium was collected after 24 hours and assayed for levels of the secreted cytokine TNFα. […] Testing Toxicity of Sugar Analogs
Femurs were carefully removed from euthanized female C57BI/6 mice, and marrow was flushed into a culture plate with cold complete bone marrow growth medium (DMEM, 10% fetal bovine serum, and the supplements 1% penicillin/streptomycin, 1% glutamine, 1% non-essential amino acids, and 10% supernatant from L929 cell-line enriched in macrophage-colony stimulating factor). Cells were spun at 1100 rpm for 10 minutes, resuspended in fresh growth medium and plated at 10×10^6 cells/ml in a 10 cm culture dish. Cells were grown in DMEM with supplements and L929 supernatant for 5 days, then half the medium was replaced with fresh growth medium. On day 7 growth medium was replaced with DMEM with 10% FBS and supplements. Cells were used on day 8, and experiments were conducted in DMEM with 1% FBS and supplements unless otherwise specified.
BMDM were plated at 25,000 cells in 96-well plates in DMEM+L929 media. After 24 hours media was changed to DMEM+1% FBS. One hour later, cells were treated with […] compounds or PBS. After 1 hour LPS (final concentration 100 ng/ml) was added. Following 24 hours, conditioned media was harvested for TNFα ELISA (Thermo Scientific), which was performed according to manufacturer's instructions.

SMILES: CC(=O)NC1C(O)OC(COC(C)=O)[C@@H](F)C1OC(C)=O (stereo in doubt) [Compound 10]
- percentage of cells in cell cycle phases (splenocytes [1]): reduced the percentage of cells in the S (DNA synthesis)-phase of the cell cycle

SMILES: CC(=O)NC1C(OC(C)=O)OC(COC(C)=O)C(F)(F)C1OC(C)=O [Compound 16, 2-Acetamido-1,3,6-tri-O-acetyl-2,4-dideoxy-4,4-difluoro-α/β-D-xylo-hexopyranose]
- percentage of Olig2+ oligodendrocyte lineage cells that are Olig2+ PDGFRα+ OPCs [2]: significant increase; also recorded: increased the proportion of oligodendrocyte precursor cells (OPCs)

SMILES: CCC(=O)OCC1OC(O)C(NC(C)=O)C(OC(=O)CC)[C@@H]1F (mixture of isomers) [Compound 11, 2-Acetamido-2,4-dideoxy-4-fluoro-3,6-di-O-propanoyl-α/β-D-glucopyranose]
- splenocyte proliferation (splenocytes [3]): reduced splenocyte proliferation
- effect on CSPG production by astrocytes [4]: did not lower CSPG production in astrocytes
- TNFα production by LPS-stimulated macrophages (TNFα): enhanced TNFα levels
